Reference: patent EP4603105A1, “PHARMACEUTICAL COMPOSITION CONTAINING CYCLIC COMPOUND HAVING SELECTIVE KRAS INHIBITORY EFFECT AGAINST HRAS AND NRAS” (CHUGAI SEIYAKU KABUSHIKI KAISHA, priority 2022, dated 2024)
*1 amine or outer side, *2 acyl side, *3 side chain or, on linkers, in order; H or OH if unused. Where a SMILES comes first, the peptide text is derived from it. Bridges are numbered along the chain shown (N, C = ends). [ ]: non-standard residue; d: D form. The star is where a group is joined. hPhe(3-Cl-4-CF3) = N[C@@H](CCc1ccc(C(F)(F)F)c(Cl)c1)C(=O)O; NPrPhe(4-CF3) = CCCN[C@@H](Cc1ccc(C(F)(F)F)cc1)C(=O)O; NMeGly(cPent) = CN[C@H](C(=O)O)C1CCCC1; NMeD = CN[C@@H](CC(=O)O)C(=O)O; NMeL = CN[C@@H](CC(C)C)C(=O)O; X20 = O=C(CN(CCF)[*:1])[*:2]; Morpholide = C1CN(*)CCO1; Ac5c = NC1(C(=O)O)CCCC1; Sar = CNCC(=O)O

Assays:
[1] = target: GDP-bound NRAS wild-type protein (Homo sapiens, UniProt P01111); assay: Binding to NRAS by surface plasmon resonance (SPR), KD and KD ratio to KRAS
GDP-bound NRAS wild-type protein, sequence (P01111 whole entry): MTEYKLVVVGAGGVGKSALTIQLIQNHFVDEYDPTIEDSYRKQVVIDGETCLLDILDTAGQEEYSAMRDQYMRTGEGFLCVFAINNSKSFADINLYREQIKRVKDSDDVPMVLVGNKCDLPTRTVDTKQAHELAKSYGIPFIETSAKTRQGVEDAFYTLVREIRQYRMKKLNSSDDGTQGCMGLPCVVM
Summary of the method: (§1)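 GDP-loaded biotinylated Avi-tag RAS proteins (E. coli-expressed) captured on a Biotin CAPture chip at ~100–300 RU; single-cycle kinetics at 30°C, 100 µL/min, 75 s injections of rising compound concentrations. HBS pH 7.4 running buffer with 1 mM DTT, 10 mM MgCl2, 10 µM GDP, 4% DMSO. KD from 1:1 binding fit.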

HRAS wild-type protein = HRAS wild-type protein (Homo sapiens, UniProt P01112); assay: Binding to HRAS by surface plasmon resonance (SPR), KD and KD ratio to KRAS
HRAS wild-type protein, sequence (P01112 whole entry): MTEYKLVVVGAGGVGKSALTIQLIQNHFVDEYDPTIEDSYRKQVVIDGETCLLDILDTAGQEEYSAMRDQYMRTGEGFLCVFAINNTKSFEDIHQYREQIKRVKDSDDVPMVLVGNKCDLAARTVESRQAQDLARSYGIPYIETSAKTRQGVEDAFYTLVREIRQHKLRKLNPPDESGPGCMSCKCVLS
Summary of the method: as §1

[2] = test system: human lung cancer strain NCI-H441; format: cell-based
Summary of the method: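 Readout: […] after the ATP-based reagent. Compound: serial dilutions in dimethyl sulfoxide.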

[3] = ratio of KD for GDP-bound NRAS wild-type protein to KD for KRAS
[4] = ratio of KD for HRAS wild-type protein to KD for KRAS
[5] = ratio of the KD value with respect to GDP-bound NRAS wild-type protein to the KD value with respect to KRAS
[6] = ratio of the KD value with respect to HRAS wild-type protein to the KD value with respect to KRAS

For `CCC[C@H]1C(=O)N[C@@H]([C@@H](C)CC)C(=O)N(C)CC(=O)N(C)[C@H]2C/C=C\CCN(C2=O)[C@@H](Cc2ccc(C)cc2)C(=O)N(C)CC(=O)N[C@@H](CCc2ccc(Cl)c(C(F)(F)F)c2)C(=O)N2C[C@H](OCC)C[C@H]2C(=O)NC2(CC(C)(C)C2)C(=O)N(C)[C@@H](C2CCCC2)C(=O)N(C)[C@H](C(=O)N(C)C)CC(=O)N1C` [PP2786], the “NRAS /KRAS” value [1, 3] was “A (a compound having 10 or more and less than 20 is denoted as A)”, the “HRAS /KRAS” value (HRAS wild-type protein; [4]) was “A (a compound having 10 or more and less than 20 is denoted as A)” and the IC50 [2] was 9.8 nM.

In the case of `C=CCN1CC(=O)N(C)[C@H]2C/C=C\CCN(C2=O)[C@@H](Cc2ccc(C)cc2)C(=O)N(C)CC(=O)N[C@@H](CCc2cc(F)c(C(F)(F)F)c(F)c2)C(=O)N2C[C@H](OCC)C[C@H]2C(=O)NC2(CC(C)(C)C2)C(=O)N(C)[C@@H](C2CCCC2)C(=O)N(C)[C@H](C(=O)N(C)C)CC(=O)N(C)[C@@H](CCC)C(=O)N[C@@H]([C@@H](C)CC)C1=O` [PP2094], the “NRAS /KRAS” value [1, 5] is reported as “A (a compound having 10 or more and less than 20 is denoted as A)”, the “HRAS /KRAS” value (HRAS wild-type protein; [6]) is reported as “A (a compound having 10 or more and less than 20 is denoted as A)” and the IC50 [2] is reported as 5.4 nM.

With `CCO[C@@H]1C[C@H]2C(=O)NC3(CCC3)C(=O)N(C)[C@@H](C3CCCC3)C(=O)N(C)[C@H](C(=O)N3CCOCC3)CC(=O)N(C)[C@@H](CC(C)C)C(=O)N[C@@H]([C@@H](C)CC)C(=O)N(C)CC(=O)N(C)[C@H]3CCCCCN(C3=O)[C@@H](Cc3ccc(F)c(C)c3)C(=O)N(C)CC(=O)N[C@@H](CCc3cc(F)c(C(F)(F)F)c(F)c3)C(=O)N2C1` [PP0922] the “NRAS /KRAS” value [1, 3] was “B (a compound having 3 or more and less than 10 is denoted as B)”, the “HRAS /KRAS” value (HRAS wild-type protein; [4]) was “B (a compound having 3 or more and less than 10 is denoted as B)” and the IC50 [2] was 98.2 nM.

In the case of `CCCN1C(=O)CN(C)C(=O)CN(CCF)C(=O)[C@H]([C@@H](C)CC)NC(=O)[C@H](CC(C)C)N(C)C(=O)C[C@@H](C(=O)N2CCOCC2)N(C)C(=O)[C@H](C2CCCC2)N(C)C(=O)C2(CCCC2)NC(=O)[C@@H]2CCCN2C(=O)[C@H](CCc2ccc(C(F)(F)F)c(Cl)c2)NC(=O)CN(C)C(=O)[C@@H]1Cc1ccc(C(F)(F)F)cc1` [PP0751] ([NMeL]I[X20][Sar][NPrPhe(4-CF3)][Sar][hPhe(3-Cl-4-CF3)]P[Ac5c][NMeGly(cPent)][NMeD]-Morpholide; lactam N-11), the “NRAS /KRAS” value [1, 5] is reported as “B (a compound having 3 or more and less than 10 is denoted as B)”, the “HRAS /KRAS” value (HRAS wild-type protein; [6]) is reported as “C (A compound having a KD ratio of 0.1 or more and less than 3 is denoted as C)” and the IC50 [2] is reported as 25.5 nM.

In the case of `CCCN(C)C(=O)[C@@H]1CC(=O)N(C)[C@@H](CC(C)C)C(=O)N[C@@H](C2CCOCC2)C(=O)N(C)CC(=O)N(C)[C@H]2C/C=C\CCN(C2=O)[C@@H](Cc2ccc(C(F)(F)F)cc2)C(=O)N(C)CC(=O)N[C@@H](CCc2cc(F)c(C(F)(F)F)c(F)c2)C(=O)N2C[C@H](OCC)C[C@H]2C(=O)NC2(CC(C)(C)C2)C(=O)N(C)[C@@H](C2CCCC2)C(=O)N1C` [PP1923], the “NRAS /KRAS” value [1, 5] is reported as “A (a compound having 10 or more and less than 20 is denoted as A)”, the “HRAS /KRAS” value (HRAS wild-type protein; [6]) is reported as “A (a compound having 10 or more and less than 20 is denoted as A)” and the IC50 [2] is reported as 68 nM.

In the case of `CCO[C@@H]1C[C@H]2C(=O)NC3(CC(C)(C)C3)C(=O)N(C)[C@@H](C(CC)CC)C(=O)N(C)[C@H](C(=O)N3CCCC3)CC(=O)N(C)[C@@H](COC)C(=O)N[C@@H]([C@@H](C)CC)C(=O)N(C)CC(=O)N(C)[C@H]3C/C=C\CCN(C3=O)[C@@H](Cc3ccc(C(F)(F)F)cc3)C(=O)N(C)CC(=O)N[C@@H](CCc3ccc(Cl)c(Cl)c3)C(=O)N2C1` [PP2174], the “NRAS /KRAS” value [1, 5] is reported as “AA (a compound having 20 or more is denoted as AA)”, the “HRAS /KRAS” value (HRAS wild-type protein; [6]) is reported as “A (a compound having 10 or more and less than 20 is denoted as A)” and the IC50 [2] is reported as 24 nM.

With `CCO[C@@H]1C[C@H]2C(=O)NC3(CC(C)(C)C3)C(=O)N(C)[C@@H](C(CC)CC)C(=O)N(C)[C@H](C(=O)N(C)C)CC(=O)N(C)[C@@H](C(C)C)C(=O)N[C@@H]([C@@H](C)CC)C(=O)N(C)CC(=O)N(C)[C@H]3C/C=C\CCN(C3=O)[C@@H](Cc3ccc(C(F)(F)F)cc3)C(=O)N(C)CC(=O)N[C@@H](CCc3cc(F)c(C(F)(F)F)c(F)c3)C(=O)N2C1` [PP2135] the “NRAS /KRAS” value [1, 5] was “AA (a compound having 20 or more is denoted as AA)”, the “HRAS /KRAS” value (HRAS wild-type protein; [6]) was “A (a compound having 10 or more and less than 20 is denoted as A)” and the IC50 [2] was 15.7 nM.
